Data on 45 compounds can be found in article PMC12796986 (Journal of medicinal chemistry, 2025).

Usually IC50 stands for the concentration at which inhibition is half-maximal.

Read-outs that look alike come from different tables or passages of the source.

The assay concerns the target mpox resolvase (Mpr) (Monkeypox virus, UniProt A0A7H0DNC1). In words: biochemical. It counts as biochemical.

Sequence of mpox resolvase (Mpr) (A0A7H0DNC1 whole entry, looked up): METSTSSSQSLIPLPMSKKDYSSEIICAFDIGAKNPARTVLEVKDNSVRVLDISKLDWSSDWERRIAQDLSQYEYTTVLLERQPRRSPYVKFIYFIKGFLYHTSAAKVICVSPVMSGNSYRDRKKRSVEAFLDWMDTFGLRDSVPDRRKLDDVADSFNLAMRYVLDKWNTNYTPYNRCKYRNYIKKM

On to `O=c1c(-c2ccccc2)c(O)c2cc(-c3ccc(F)cc3F)cnc2n1O` [4a-22, 6-(2,4-difluorophenyl)-1,4-dihydroxy-3-phenyl-1,8-naphthyridin-2(1H)-one], for which the “fluorescence quenching in the FRET assay” value is “fluorescence quenching”.
Consider `NC(=O)c1cccc(-c2cnc3c(c2)c(O)cc(=O)n3O)c1` [4c-12, 3-(5,8-dihydroxy-7-oxo-7,8-dihydro-1,8-naphthyridin-3-yl) benzamide], for which, where the note is “read-out: Mpr IC50”, the IC50 stood at 15 ± 2 µM.
In the case of `O=c1cc(O)c2cc(-c3ccc(-c4ccccc4)cc3)cnc2n1O` [4c-2, 6-([1,1’-biphenyl]-4-yl)-1,4-dihydroxy-1,8-naphthyridin-2(1H)-one], the “fluorescence quenching in the FRET assay” value is listed as “direct quenching of fluorophore”.
Take `CSc1cccc(-c2cnc3c(c2)cc(-c2ccccc2)c(=O)n3O)c1` [6-2, 1-hydroxy-6-(3-(methylthio)phenyl)-3-phenyl-1,8-naphthyridin-2(1H)-one]: the 50% inhibitory concentration (IC50) is > 50 µM.
Still for that read-out and setting: with `O=c1c(-c2ccccc2)c(O)c2cc(-c3ccc(C(F)(F)F)cc3)cnc2n1O` [4a-7, 1,4-dihydroxy-3-phenyl-6-(4-(trifluoromethyl)phenyl)-1,8-naphthyridin-2(1H)-one] the figure was 0.6 ± 0.1 µM; with `CCc1c(O)c2cc(-c3ccsc3)cnc2n(O)c1=O` [4b-11, 3-ethyl-1,4-dihydroxy-6-(thiophen-3-yl)-1,8-naphthyridin-2(1H)-one], 3.9 ± 0.1 µM.
In turn, `CCc1c(O)c2cc(-c3ccc4cc(OC)ccc4c3)cnc2n(O)c1=O` [4b-4, 3-ethyl-1,4-dihydroxy-6-(6-methoxynaphthalen-2-yl)-1,8-naphthyridin-2(1H)-one] showed an IC50 of 1.6 ± 0.3 µM.
As for `O=c1cc(O)c2cc(-c3ccsc3)cnc2n1O` [4c-11, 1,4-dihydroxy-6-(thiophen-3-yl)-1,8-naphthyridin-2(1H)-one], the “fluorescence quenching in the FRET assay” value is “direct quenching of fluorophore”.
`CSc1ccc(-c2ccnc3c2c(O)cc(=O)n3O)cc1` [5-4, 1,4-dihydroxy-5-(4-(methylthio)phenyl)-1,8-naphthyridin-2(1H)-one]: the 50% inhibitory concentration (IC50) was determined as 0.12 ± 0.01 µM.
Same read-out and setting: as for `COc1ccc2cc(-c3cnc4c(c3)c(O)c(-c3ccccc3)c(=O)n4O)ccc2c1` [4a-4, 1,4-dihydroxy-6-(6-methoxynaphthalen-2-yl)-3-phenyl-1,8-naphthyridin-2(1H)-one], the figure is 0.97 ± 0.03 µM; as for `O=c1cc(O)c2cc(Br)cnc2n1O` [4c-14, 6-bromo-1,4-dihydroxy-1,8-naphthyridin-2(1H)-one], 9 ± 1 µM; as for `CCc1c(O)c2cc(-c3ccccc3F)cnc2n(O)c1=O` [4b-6, 3-ethyl-6-(2-fluorophenyl)-1,4-dihydroxy-1,8-naphthyridin-2(1H)-one], 2.1 ± 0.9 µM.
The same measure, in the same setting: as for `COc1ccc2cc(-c3cnc4c(c3)c(O)cc(=O)n4O)ccc2c1` [4c-4, 1,4-dihydroxy-6-(6-methoxynaphthalen-2-yl)-1,8-naphthyridin-2(1H)-one], the figure is 0.24 ± 0.03 µM; as for `O=c1cc(O)c2cc(-c3ccc(C(F)(F)F)cc3)cnc2n1O` [4c-7, 1,4-dihydroxy-6-(4-(trifluoromethyl)phenyl)-1,8-naphthyridin-2(1H)-one], 0.47 ± 0.05 µM; as for `NS(=O)(=O)c1ccc(-c2cnc3c(c2)c(O)c(-c2ccccc2)c(=O)n3O)cc1` [4a-21, 4-(5,8-dihydroxy-7-oxo-6-phenyl-7,8-dihydro-1,8-naphthyridin-3-yl)benzenesulfonamide], 1.5 ± 0.1 µM.
Regarding `Cc1ccc(-c2cnc3c(c2)c(O)cc(=O)n3O)cc1F` [4c-13, 6-(3-fluoro-4-methylphenyl)-1,4-dihydroxy-1,8-naphthyridin-2(1H)-one], the “fluorescence quenching in the FRET assay” value is recorded as “direct quenching of fluorophore”.
`O=c1c(-c2ccccc2)c(O)c2cc(-c3ccc(-c4ccccc4)cc3)cnc2n1O` [4a-2, 6-([1,1’-biphenyl]-4-yl)-1,4-dihydroxy-3-phenyl-1,8-naphthyridin-2(1H)-one] displayed an IC50 of 0.25 ± 0.01 µM.
Still for that read-out and setting: with `CCc1c(O)c2cc(-c3ccc(OC)c(F)c3)cnc2n(O)c1=O` [4b-10, 3-ethyl-6-(3-fluoro-4-methoxyphenyl)-1,4-dihydroxy-1,8-naphthyridin-2(1H)-one] the figure was 5 ± 1 µM.
Same read-out and setting: with `O=c1c(-c2ccccc2)c(O)c2cc(-c3cccnc3)cnc2n1O` [4a-25, 1,4-dihydroxy-3-phenyl-6-(pyridin-3-yl)-1,8-naphthyridin-2(1H)-one] the figure was 12 ± 1 µM; with `O=c1c(-c2ccccc2)c(O)c2cc(-c3ccc(C(F)(F)F)cc3C(F)(F)F)cnc2n1O` [4a-23, 6-(2,4-bis(trifluoromethyl)phenyl)-1,4-dihydroxy-3-phenyl-1,8-naphthyridin-2(1H)-one], 2.7 ± 0.4 µM.
On to `O=c1c(-c2ccccc2)cc2cc(-c3cccc(-c4ccccc4)c3)cnc2n1O` [6-1, 6-([1,1’-biphenyl]-3-yl)-1-hydroxy-3-phenyl-1,8-naphthyridin-2(1H)-one], for which the IC50 is > 50 µM.
The same measure, in the same setting: with `CCc1c(O)c2cc(-c3ccccc3)cnc2n(O)c1=O` [4b-5, 3-ethyl-1,4-dihydroxy-6-phenyl-1,8-naphthyridin-2(1H)-one] the figure was 5.3 ± 0.2 µM.
Same read-out and setting: with `CCc1c(O)c2cc(-c3ccc(C(F)(F)F)cc3)cnc2n(O)c1=O` [4b-7, 3-ethyl-1,4-dihydroxy-6-(4-(trifluoromethyl)phenyl)-1,8-naphthyridin-2(1H)-one] the figure was 2.5 ± 0.1 µM.
With `CSc1ccc(-c2cnc3c(c2)c(O)cc(=O)n3O)cc1` [4c-8, 1,4-dihydroxy-6-(4-(methylthio)phenyl)-1,8-naphthyridin-2(1H)-one], the “fluorescence quenching in the FRET assay” value is “direct quenching of fluorophore”.
As for `CCc1c(O)c2cc(-c3cc(OC)ccc3OC)cnc2n(O)c1=O` [4b-9, 6-(2,5-dimethoxyphenyl)-3-ethyl-1,4-dihydroxy-1,8-naphthyridin-2(1H)-one], the IC50 turned out to be 1.5 ± 0.1 µM.
Still for that read-out and setting: as for `CSc1cccc(-c2cnc3c(c2)c(O)c(-c2ccccc2)c(=O)n3O)c1` [4a-17, 1,4-dihydroxy-6-(3-(methylthio)phenyl)-3-phenyl-1,8-naphthyridin-2(1H)-one], the figure is 0.6 ± 0.1 µM; as for `O=c1c(-c2ccccc2)c(O)c2cc(-c3ccsc3)cnc2n1O` [4a-11, 1,4-dihydroxy-3-phenyl-6-(thiophen-3-yl)-1,8-naphthyridin-2(1H)-one], 1.3 ± 0.3 µM.
Regarding `CC(=O)c1ccc(-c2cnc3c(c2)c(O)c(-c2ccccc2)c(=O)n3O)s1` [4a-28, 6-(5-acetylthiophen-2-yl)-1,4-dihydroxy-3-phenyl-1,8-naphthyridin-2(1H)-one], the “fluorescence quenching in the FRET assay” value is listed as “fluorescence quenching”.
For the compound `COc1ccc(OC)c(-c2cnc3c(c2)c(O)c(-c2ccccc2)c(=O)n3O)c1` [4a-9, 6-(2,5-dimethoxyphenyl)-1,4-dihydroxy-3-phenyl-1,8-naphthyridin-2(1H)-one], the IC50 came to 1.4 ± 0.1 µM.
On the same count and under the same terms, with `O=c1cc(O)c2cc(-c3ccccc3)cnc2n1O` [4c-5, 1,4-dihydroxy-6-phenyl-1,8-naphthyridin-2(1H)-one] the figure was 1.8 ± 0.01 µM.
Take `O=c1c(-c2ccccc2)c(O)c2cc(-c3cnc4ccccc4c3)cnc2n1O` [4a-29, 1,4-dihydroxy-3-phenyl-6-(quinolin-3-yl)-1,8-naphthyridin-2(1H)-one]: the “Mpr inhibition” value was “did not inhibit Mpr”.
For `O=c1c(-c2ccccc2)c(O)c2cc(Br)cnc2n1O` [4a-14, 6-bromo-1,4-dihydroxy-3-phenyl-1,8-naphthyridin-2(1H)-one], half-maximal inhibition (IC50) was put at 7.6 ± 0.1 µM.
Turning to `Cc1ccc(-c2cnc3c(c2)c(O)c(-c2ccccc2)c(=O)n3O)cc1` [4a-16, 1,4-dihydroxy-3-phenyl-6-(p-tolyl)-1,8-naphthyridin-2(1H)-one], the IC50 worked out at 1.9 ± 0.4 µM.
Consider `O=c1c(-c2ccccc2)c(O)c2cc(-c3c(F)cc(F)cc3F)cnc2n1O` [4a-24, 1,4-dihydroxy-3-phenyl-6-(2,4,6-trifluorophenyl)-1,8-naphthyridin-2(1H)-one], for which the “fluorescence quenching in the FRET assay” value is “fluorescence quenching”.
`COc1ccc(OC)c(-c2cnc3c(c2)c(O)cc(=O)n3O)c1` [4c-9, 6-(2,5-dimethoxyphenyl)-1,4-dihydroxy-1,8-naphthyridin-2(1H)-one]: half-maximal inhibition (IC50) required 1.6 ± 0.1 µM.
Take `N#Cc1ccc(-c2cnc3c(c2)c(O)c(-c2ccccc2)c(=O)n3O)cc1` [4a-20, 4-(5,8-dihydroxy-7-oxo-6-phenyl-7,8-dihydro-1,8-naphthyridin-3-yl) benzonitrile]: the IC50 turned out to be 1.9 ± 0.2 µM.
On the same count and under the same terms, with `O=c1c(-c2ccccc2)c(O)c2cc(-c3ccc(O)cc3)cnc2n1O` [4a-15, 1,4-dihydroxy-6-(4-hydroxyphenyl)-3-phenyl-1,8-naphthyridin-2(1H)-one] the figure was 1.5 ± 0.1 µM; with `CCc1c(O)c2cc(-c3ccc(SC)cc3)cnc2n(O)c1=O` [4b-8, 3-ethyl-1,4-dihydroxy-6-(4-(methylthio)phenyl)-1,8-naphthyridin-2(1H)-one], 0.7 ± 0.1 µM.
Still for that read-out and setting: as for `O=c1cc(O)c2cc(-c3ccccc3F)cnc2n1O` [4c-6, 6-(2-fluorophenyl)-1,4-dihydroxy-1,8-naphthyridin-2(1H)-one], the figure is 1 ± 0.1 µM; as for `COc1ccc(-c2cnc3c(c2)c(O)cc(=O)n3O)cc1F` [4c-10, 6-(3-fluoro-4-methoxyphenyl)-1,4-dihydroxy-1,8-naphthyridin-2(1H)-one], 2.5 ± 0.5 µM.
For `CSc1ccc(-c2cnc3c(c2)c(O)c(-c2ccccc2)c(=O)n3O)cc1` [4a-8, 1,4-dihydroxy-6-(4-(methylthio)phenyl)-3-phenyl-1,8-naphthyridin-2(1H)-one], half-maximal inhibition (IC50) required 0.37 ± 0.03 µM.
Compound `O=c1c(-c2ccccc2)c(O)c2cc(-c3ccco3)cnc2n1O` [4a-27, 6-(furan-2-yl)-1,4-dihydroxy-3-phenyl-1,8-naphthyridin-2(1H)-one] returned a concentration for half-maximal inhibition (IC50) of 4 ± 0.2 µM.
Same read-out and setting: as for `O=c1c(-c2ccccc2)c(O)c2cccnc2n1O` [4a-31, 1,4-dihydroxy-3-phenyl-1,8-naphthyridin-2(1H)-one], the figure is 17 ± 1 µM; as for `O=c1c(-c2ccccc2)c(O)c2cc(-c3cncnc3)cnc2n1O` [4a-26, 1,4-dihydroxy-3-phenyl-6-(pyrimidin-5-yl)-1,8-naphthyridin-2(1H)-one], 15 ± 1 µM; as for `O=c1cc(O)c2cc(-c3cccc(-c4ccccc4)c3)cnc2n1O` [4c-1, 6-([1,1’-biphenyl]-3-yl)-1,4-dihydroxy-1,8-naphthyridin-2(1H)-one], 0.12 ± 0.01 µM.
